Reference: patent US12077503B2, “Substituted cyclic amides and their use as herbicides” (FMC CORPORATION, priority 2015, dated 2024)

How the values were obtained:
Format in all cases: in vivo
Kochia (Kochia scoparia) [1] = assay: Test A preemergence; details: Bassia scoparia, pre-emergence, 240 h, 0 to 100 scale (0 no effect, 100 complete control), read-out: Plant response rating, Kochia; for pest or weed control at 500 g/ha: 500 g ai/ha, preemergence; for pest or weed control at 125 g/ha: Preemergence, 125 g ai/ha
Summary of the method: (§1)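 Visual injury scores from 0, no effect, to 100, complete control, were assigned versus untreated controls roughly 10 d after treatment in the greenhouse. Test chemicals, formulated with surfactant in a non-phytotoxic solvent, were applied to planted seeds as a preemergence soil spray or postemergence to one- to two-leaf plants 2 to 10 cm tall, in loam–sand soil.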

[2] = tested on: barnyardgrass (Echinochloa crus-galli); assay: Test A preemergence; details: Echinochloa crus-galli, pre-emergence, 240 h, 0 to 100 scale (0 no effect, 100 complete control), read-out: Plant response rating, Barnyardgrass; for pest or weed control at 500 g/ha: 500 g ai/ha, preemergence; for pest or weed control at 125 g/ha: Preemergence, 125 g ai/ha
Summary of the method: as §1

[3] = tested on: giant foxtail (Setaria faberii); assay: Test A preemergence; details: Setaria faberi, pre-emergence, 240 h, 0 to 100 scale (0 no effect, 100 complete control), read-out: Plant response rating, Foxtail, Giant; for pest or weed control at 500 g/ha: 500 g ai/ha, preemergence; for pest or weed control at 125 g/ha: Preemergence, 125 g ai/ha
Summary of the method: as §1

[4] = tested on: pigweed (Amaranthus retroflexus); assay: Test A preemergence; details: Amaranthus retroflexus, pre-emergence, 240 h, 0 to 100 scale (0 no effect, 100 complete control), read-out: Plant response rating, Pigweed; for pest or weed control at 500 g/ha: 500 g ai/ha, preemergence; for pest or weed control at 125 g/ha: Preemergence, 125 g ai/ha
[5] = tested on: ragweed (common ragweed, Ambrosia elatior); assay: Test A preemergence; details: Ambrosia artemisiifolia, pre-emergence, 240 h, 0 to 100 scale (0 no effect, 100 complete control), read-out: Plant response rating, Ragweed; for pest or weed control at 500 g/ha: 500 g ai/ha, preemergence; for pest or weed control at 125 g/ha: Preemergence, 125 g ai/ha
Summary of the method: as §1

[6] = tested on: ryegrass, Italian (Italian ryegrass, Lolium multiflorum); assay: Test A preemergence; details: Lolium multiflorum, pre-emergence, 240 h, 0 to 100 scale (0 no effect, 100 complete control), read-out: Plant response rating, Ryegrass, Italian; for pest or weed control at 500 g/ha: 500 g ai/ha, preemergence; for pest or weed control at 125 g/ha: Preemergence, 125 g ai/ha
Summary of the method: as §1

[7] = tested on: Galium (catchweed bedstraw, Galium aparine); assay: Test A postemergence; details: Galium, post-emergence, 240 h, Postemergence; for pest or weed control at 125 g/ha: 125 g ai/ha, visual rating about 10 d after treatment, read-out: Galium plant response rating (0 to 100 scale); for pest or weed control at 500 g/ha: 500 g ai/ha, visual injury, 0 to 100 scale (0 no effect, 100 complete control), approx. 10 d, read-out: Plant response rating, Galium
Summary of the method: as §1

Kochia (Kochia scoparia) [8] = assay: Test A postemergence; details: Bassia scoparia, post-emergence, 240 h, Postemergence; for pest or weed control at 125 g/ha: 125 g ai/ha, visual rating about 10 d after treatment, read-out: Kochia plant response rating (0 to 100 scale); for pest or weed control at 500 g/ha: 500 g ai/ha, visual injury, 0 to 100 scale (0 no effect, 100 complete control), approx. 10 d, read-out: Plant response rating, Kochia
Summary of the method: as §1

[9] = tested on: giant foxtail (Setaria faberii); assay: Test A postemergence; details: Setaria faberi, post-emergence, 240 h, Postemergence; for pest or weed control at 125 g/ha: 125 g ai/ha, visual rating about 10 d after treatment, read-out: Foxtail, Giant plant response rating (0 to 100 scale); for pest or weed control at 500 g/ha: 500 g ai/ha, visual injury, 0 to 100 scale (0 no effect, 100 complete control), approx. 10 d, read-out: Plant response rating, Foxtail, Giant
Summary of the method: as §1

[10] = tested on: pigweed (Amaranthus retroflexus); assay: Test A postemergence; details: Amaranthus retroflexus, post-emergence, 240 h, Postemergence; for pest or weed control at 125 g/ha: 125 g ai/ha, visual rating about 10 d after treatment, read-out: Pigweed plant response rating (0 to 100 scale); for pest or weed control at 500 g/ha: 500 g ai/ha, visual injury, 0 to 100 scale (0 no effect, 100 complete control), approx. 10 d, read-out: Plant response rating, Pigweed
Summary of the method: as §1

[11] = tested on: wheat (Triticum aestivum); assay: Test A postemergence; details: Triticum aestivum, post-emergence, 240 h, Postemergence; for plant injury at 125 g/ha: 125 g ai/ha, visual rating about 10 d after treatment, read-out: Wheat plant response rating (0 to 100 scale); for plant injury at 500 g/ha: 500 g ai/ha, visual injury, 0 to 100 scale (0 no effect, 100 complete control), approx. 10 d, read-out: Plant response rating, Wheat
Summary of the method: as §1

[12] = tested on: barnyardgrass (Echinochloa crus-galli); assay: Test B flooded paddy test; details: Echinochloa crus-galli, 360 h, Flood, 250 g ai/ha; visually evaluated after 13 to 15 d; read-out: Plant response rating, Barnyardgrass (0 to 100 scale where 0 is no effect and 100 is complete control)
Summary of the method: (§2)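 Compound goes directly into floodwater once pots are flooded 3 cm above soil, targeting plants at two leaves; the water depth is then held for the test duration. Plants sit 13–15 d in a greenhouse and are rated visually, 100 denoting complete control.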

[13] = tested on: ducksalad (Heteranthera limosa); assay: Test B flooded paddy test; details: Heteranthera limosa, 360 h, Flood, 250 g ai/ha; visually evaluated after 13 to 15 d; read-out: Plant response rating, Ducksalad (0 to 100 scale where 0 is no effect and 100 is complete control)
Summary of the method: as §2

rice (Oryra sativa) = assay: Test B flooded paddy test; details: Oryza sativa, 360 h, Flood, 250 g ai/ha; visually evaluated after 13 to 15 d; read-out: Plant response rating, Rice (0 to 100 scale where 0 is no effect and 100 is complete control)
Summary of the method: as §2

[14] = tested on: sedge, umbrella (small-flower umbrella sedge, Cyperus difformis); assay: Test B flooded paddy test; details: Cyperus difformis, 360 h, Flood, 250 g ai/ha; visually evaluated after 13 to 15 d; read-out: Plant response rating, Sedge, Umbrella (0 to 100 scale where 0 is no effect and 100 is complete control)
Summary of the method: as §2

`CN1C[C@H](c2ccc(C(F)(F)F)cc2)[C@@H](C(=O)Nc2ccccc2C#N)C1=O` [Compound 1379] gave a pest or weed control at 500 g/ha (Kochia (Kochia scoparia) [1]) of 90%, a pest or weed control at 125 g/ha (Kochia (Kochia scoparia) [1]) of 90% and a pest or weed control at 500 g/ha [2] of 100%. For the same molecule, the pest or weed control at 125 g/ha [2] was 100%, the pest or weed control at 500 g/ha [3] was 100% and the pest or weed control at 125 g/ha [3] was 100%. For the same molecule, the pest or weed control at 500 g/ha [4] was 90%, the pest or weed control at 125 g/ha [4] was 80% and the pest or weed control at 500 g/ha [5] was 90%. For the same molecule, the pest or weed control at 125 g/ha [5] was 70%, the pest or weed control at 500 g/ha [6] was 50% and the pest or weed control at 125 g/ha [6] was 20%. The pest or weed control at 125 g/ha [7] was 40%, the pest or weed control at 500 g/ha [7] was 60% and the pest or weed control at 125 g/ha (Kochia (Kochia scoparia) [8]) was 30%. The pest or weed control at 500 g/ha (Kochia (Kochia scoparia) [8]) was 60%, the pest or weed control at 125 g/ha [9] was 80% and the pest or weed control at 500 g/ha [9] was 80%. For the same molecule, the pest or weed control at 125 g/ha [10] was 20%, the pest or weed control at 500 g/ha [10] was 50% and the plant injury at 125 g/ha [11] was 30%. For the same molecule, the plant injury at 500 g/ha [11] was 50%, the pest or weed control at 250 g/ha [12] was 55% and the pest or weed control at 250 g/ha [13] was 100%. The pest or weed control at 250 g/ha (rice (Oryra sativa)) was 0% and the pest or weed control at 250 g/ha [14] was 0%.

`O=C1NC[C@H](c2cncs2)[C@H]1C(=O)Nc1cccc(F)c1F` [Compound 1336] gave a pest or weed control at 500 g/ha (Kochia (Kochia scoparia) [1]) of 0%, a pest or weed control at 125 g/ha (Kochia (Kochia scoparia) [1]) of 0% and a pest or weed control at 500 g/ha [2] of 0%. For the same molecule, the pest or weed control at 125 g/ha [2] was 0%, the pest or weed control at 500 g/ha [3] was 0% and the pest or weed control at 125 g/ha [3] was 0%. The pest or weed control at 500 g/ha [4] was 0%, the pest or weed control at 125 g/ha [4] was 0% and the pest or weed control at 500 g/ha [5] was 0%. The pest or weed control at 125 g/ha [5] was 0%, the pest or weed control at 500 g/ha [6] was 0% and the pest or weed control at 125 g/ha [6] was 0%. The pest or weed control at 125 g/ha [7] was 0%, the pest or weed control at 500 g/ha [7] was 0% and the pest or weed control at 125 g/ha (Kochia (Kochia scoparia) [8]) was 0%. It also gave a pest or weed control at 500 g/ha (Kochia (Kochia scoparia) [8]) of 0%, a pest or weed control at 125 g/ha [9] of 0% and a pest or weed control at 500 g/ha [9] of 0%. The pest or weed control at 125 g/ha [10] was 0%, the pest or weed control at 500 g/ha [10] was 0% and the plant injury at 125 g/ha [11] was 0%. For the same molecule, the plant injury at 500 g/ha [11] was 0%, the pest or weed control at 250 g/ha [12] was 0% and the pest or weed control at 250 g/ha [13] was 40%. For the same molecule, the pest or weed control at 250 g/ha (rice (Oryra sativa)) was 0% and the pest or weed control at 250 g/ha [14] was 0%.
